Experimental data from patent US20060079566A1, “PDK-1/Akt signaling inhibitors” (priority 2003, published 2006).

Legend:
[1] = test system: SF-268; assay: NCI DTP screen (SRB), CNS Cancer; format: cell-based
Method: (§1) Screening of compounds 70 and 71 against several cancer cell lines The human tumor cell lines of the cancer screening panel are grown in RPMI 1640 medium containing 5% fetal bovine serum and 2 mM L-glutamine. For a typical screening experiment, cells are inoculated into 96 well microtiter plates in 100 μL at plating densities ranging from 5,000 to 40,000 cells/well depending on the doubling time of individual cell lines. After cell inoculation, the microtiter plates are incubated at 37° C., 5% CO2, 95% air and 100% relative humidity for 24 h prior to addition of experimental drugs.
(§2) After 24 h, two plates of each cell line are fixed in situ with TCA, to represent a measurement of the cell population for each cell line at the time of drug addition (Tz). Experimental drugs are solubilized in dimethyl sulfoxide at 400-fold the desired final maximum test concentration and stored frozen prior to use. At the time of drug addition, an aliquot of frozen concentrate is thawed and diluted to twice the desired final maximum test concentration with complete medium containing 50 μg/ml gentamicin. Additional four, 10-fold or ½ log serial dilutions are made to provide a total of five drug concentrations plus control. Aliquots of 100 μl of these different drug dilutions are added to the appropriate microtiter wells already containing 100 μl of medium, resulting in the required final drug concentrations.
(§3) Following drug addition, the plates are incubated for an additional 48 h at 37° C., 5% CO2, 95% air, and 100% relative humidity. For adherent cells, the assay is terminated by the addition of cold TCA. Cells are fixed in situ by the gentle addition of 50 μl of cold 50% (w/v) TCA (final concentration, 10% TCA) and incubated for 60 minutes at 4° C. The supernatant is discarded, and the plates are washed five times with tap water and air dried. Sulforhodamine B (SRB) solution (100 μl) at 0.4% (w/v) in 1% acetic acid is added to each well, and plates are incubated for 10 minutes at room temperature. After staining, unbound dye is removed by washing five times with 1% acetic acid and the plates are air dried. Bound stain is subsequently solubilized with 10 mM trizma base, and the absorbance is read on an automated plate reader at a wavelength of 515 nm. For suspension cells, the methodology is the same except that the assay is terminated by fixing settled cells at the bottom of the wells by gently adding 50 μl of 80% TCA (final concentration, 16% TCA). Using the seven absorbance measurements [time zero, (Tz), control growth, (C), and test growth in the presence of drug at the five concentration levels (Ti)], the percentage growth is calculated at each of the drug concentrations levels. Percentage growth inhibition is calculated as: [(Ti−Tz)/(C−Tz)]×100 for concentrations for which Ti>/=Tz [(Ti−Tz)/Tz]×100 for concentrations for which Ti<Tz
(§4) Three dose response parameters are calculated for each experimental agent. […] The drug concentration resulting in total growth inhibition (TGI) is calculated from Ti=Tz. […] Values are calculated for each of these three parameters if the level of activity is reached; however, if the effect is not reached or is exceeded, the value for that parameter is expressed as greater or less than the maximum or minimum concentration tested.

[2] = test system: SF-295; assay: NCI DTP screen (SRB), CNS Cancer; format: cell-based; settings: Homo sapiens
Method: as §1, §2, §3, §4

[3] = test system: SNB-19; assay: NCI DTP screen (SRB), CNS Cancer; format: cell-based; settings: Homo sapiens
Method: as §1, §2, §3, §4

[4] = test system: HT29; assay: NCI DTP screen (SRB), Colon Cancer; format: cell-based; settings: Homo sapiens, HT-29
Method: (§7) After 24 h, two plates of each cell line are fixed in situ with TCA, to represent a measurement of the cell population for each cell line at the time of drug addition (Tz). Experimental drugs are solubilized in dimethyl sulfoxide at 400-fold the desired final maximum test concentration and stored frozen prior to use. […]
(§8) Following drug addition, the plates are incubated for an additional 48 h at 37° C., 5% CO2, 95% air, and 100% relative humidity. […] Bound stain is subsequently solubilized with 10 mM trizma base, and the absorbance is read on an automated plate reader at a wavelength of 515 nm. […] Using the seven absorbance measurements [time zero, (Tz), control growth, (C), and test growth in the presence of drug at the five concentration levels (Ti)], the percentage growth is calculated at each of the drug concentrations levels. Percentage growth inhibition is calculated as: [(Ti−Tz)/(C−Tz)]×100 for concentrations for which Ti>/=Tz [(Ti−Tz)/Tz]×100 for concentrations for which Ti<Tz […]

[5] = test system: NCI-H522; assay: NCI DTP screen (SRB), Non-Small Cell Lung Cancer; format: cell-based, human
Method: as §1, with “drugs. […]” for “drugs.”
(§5) Following drug addition, the plates are incubated for an additional 48 h at 37° C., 5% CO2, 95% air, and 100% relative humidity. […] Bound stain is subsequently solubilized with 10 mM trizma base, and the absorbance is read on an automated plate reader at a wavelength of 515 nm. […] Using the seven absorbance measurements [time zero, (Tz), control growth, (C), and test growth in the presence of drug at the five concentration levels (Ti)], the percentage growth is calculated at each of the drug concentrations levels. Percentage growth inhibition is calculated as: [(Ti−Tz)/(C−Tz)]×100 for concentrations for which Ti>/=Tz [(Ti−Tz)/Tz]×100 for concentrations for which Ti<Tz
(§6) Three dose response parameters are calculated for each experimental agent. […]

[6] = test system: NCI-H460; assay: NCI DTP screen (SRB), Non-Small Cell Lung Cancer; format: cell-based
Method: as §1, §2, §3, §4

[7] = test system: MCP7; assay: NCI DTP screen (SRB), Breast Cancer; format: cell-based, human; settings: MCP7
Method: as §1, §2, §3, §4

[8] = target: T1, recombinant PDK-1 (Homo sapiens, UniProt O15530); assay: PDK-1 kinase activity (Upstate kit, SGK-coupled, cell-free); format: biochemical
T1 construct: purchased Upstate (Lake Placid, N.Y.)
T1 sequence (O15530 1-556): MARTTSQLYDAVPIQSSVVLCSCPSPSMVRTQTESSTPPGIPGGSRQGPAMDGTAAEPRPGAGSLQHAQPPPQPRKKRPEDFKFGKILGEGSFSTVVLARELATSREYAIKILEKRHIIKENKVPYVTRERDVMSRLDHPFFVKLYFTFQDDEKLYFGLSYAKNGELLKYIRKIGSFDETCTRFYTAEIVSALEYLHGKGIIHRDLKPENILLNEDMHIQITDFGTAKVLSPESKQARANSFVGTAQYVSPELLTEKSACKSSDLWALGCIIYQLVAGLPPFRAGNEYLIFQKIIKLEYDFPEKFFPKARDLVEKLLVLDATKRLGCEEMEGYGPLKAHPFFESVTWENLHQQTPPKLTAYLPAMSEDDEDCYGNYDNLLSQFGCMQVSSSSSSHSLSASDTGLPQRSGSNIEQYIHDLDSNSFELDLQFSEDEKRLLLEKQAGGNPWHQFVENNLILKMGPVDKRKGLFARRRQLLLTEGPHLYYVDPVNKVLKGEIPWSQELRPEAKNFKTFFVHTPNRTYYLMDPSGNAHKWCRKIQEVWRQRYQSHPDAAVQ
Method: PDK-1 kinase activity This in vitro assay was performed using a PDK-1 kinase assay kit (Upstate, Lake Placid, N.Y.) according to the vendor's instructions. This cell-free assay is based on the ability of recombinant PDK-1, in the presence of DMSO vehicle or the test agent, to activate its downstream kinase serum- and glucocorticoid-regulated kinase (SGK.) which, in turn, phosphorylates the Akt/SGK-specific peptide substrate RPRAATF with [γ-^32]-ATP. […] The reported values represent the means of two independent determinations.

[9] = test system: RXP 393; assay: NCI DTP screen (SRB), Renal Cancer; format: cell-based, human
Method: as §1, §2, §3, §4

[10] = test system: UO-31; assay: NCI DTP screen (SRB), Renal Cancer; format: cell-based, human; settings: Homo sapiens, UO-31
Method: as §1, §2, §3, §4

[11] = test system: U251; assay: NCI DTP screen (SRB), CNS Cancer; format: cell-based, human; settings: Homo sapiens, U-251
Method: as §1, with “drugs. […]” for “drugs.”
as §5, §6

[12] = test system: CCRF-CEM; assay: NCI DTP screen (SRB), Leukemia; format: cell-based; settings: Homo sapiens
Method: as §7, §8

Structure (SMILES): NCC(=O)Nc1ccc(-n2nc(C(F)(F)F)cc2-c2ccc3c(ccc4ccccc43)c2)cc1 [Compound 70, 2-Amino-N-{4-[5-(2-phenanthrenyl)-3-(trifluoromethyl)-1H-pyrazol-1-yl]-phenyl}-acetamide]
- GI50 ([1]; Homo sapiens, SF-268): 1.11 µM
- CC50 ([1]; Homo sapiens, SF-268, read-out: LC50): > 100 µM
- Percent Growth ([1]; SF-268, Log10 Concentration −4.0): −26%
- GI50 ([2]; SF-295): 1.28 µM
- CC50 ([2]; SF-295, read-out: LC50): > 100 µM
- GI50 [3]: 1.18 µM
- GI50 [4]: 0.858 µM
- GI50 ([5]; Homo sapiens): 1.95 µM
- Mean Optical Densities ([5]; Log10 Concentration −4.0): 0.486
- GI50 ([6]; Homo sapiens, NCI-H460): 0.421 µM
- CC50 ([6]; Homo sapiens, NCI-H460, read-out: LC50): > 100 µM
- Percent Growth ([6]; NCI-H460, Log10 Concentration −5.0): −66%
- Mean Optical Densities ([6]; NCI-H460, Log10 Concentration −6.0): 1.830
- GI50 ([7]; Homo sapiens): 0.718 µM
- Percent Growth ([7]; Log10 Concentration −5.0): −57%
- Percent Growth ([7]; Log10 Concentration −6.0): 43%
- IC50 ([8]; inhibiting recombinant PDK-1 kinase activity, read-out: IC50 PDK-1): 5 µM
- increase in PDK-1 inhibition potency over compound 59 ([8]; ratio of IC50 values): two-
- GI50 ([9]; Homo sapiens): 1.14 µM
- Percent Growth ([9]; Log10 Concentration −4.0): 10%
- Mean Optical Densities ([9]; Log10 Concentration −7.0): 0.700
- Mean Optical Densities ([9]; Log10 Concentration −8.0): 0.766
- GI50 [10]: 1.37 µM
- GI50 [11]: 0.775 µM
- GI50 [12]: 0.387 µM
- CC50 ([12]; read-out: LC50): > 100 µM
